Active and inactive are the calls of the source. The calls are words filed in the database; no cut-off is given here.
Tests used:
[1] = test system: Abutilon theophrasti; assay: Pre-emergence herbicidal activity against Abutilon theophrasti (velvetleaf) assessed as mortality at 6.3 g a.i/10 a; type: functional; conditions: Abutilon theophrasti, pre-emergence
[2] = test system: Xanthium strumarium; assay: Post-emergence herbicidal activity against Xanthium strumarium (cocklebur) assessed as mortality at 1.6 g a.i/10 a applied 11 days after germination as foliar spray; type: functional; conditions: 264 h
[3] = test system: Gossypium hirsutum; assay: Post-emergence phytotoxicity against Gossypium hirsutum (cotton) assessed as mortality at 1.6 g a.i/10 a applied 11 days after germination as foliar spray; type: organism-based; conditions: in vivo, other, 264 h
[4] = test system: Ipomoea lacunosa; assay: Pre-emergence herbicidal activity against Ipomoea lacunosa assessed as mortality at 6.3 g a.i/10 a; type: functional; conditions: Ipomoea lacunosa, pre-emergence
[5] = test system: Echinochloa crus-galli; assay: Post-emergence herbicidal activity against Echinochloa crus-galli (barnyard grass) assessed as growth inhibition at 25 g a.i/10 a applied 11 days after germination as foliar spray; type: functional, organism-based
[6] = test system: Chenopodium album; assay: Post-emergence herbicidal activity against Chenopodium album assessed as growth inhibition at 25 g a.i/10 a applied 11 days after germination as foliar spray; type: functional, organism-based
[7] = test system: Digitaria sanguinalis; assay: Pre-emergence herbicidal activity against Digitaria sanguinalis (hairy crabgrass) assessed as growth inhibition at 25 g a.i/10 a; type: functional, organism-based
[8] = test system: Cyperus iria; assay: Pre-emergence herbicidal activity against Cyperus iria assessed as growth inhibition at 25 g a.i/10 a; type: functional, organism-based
[9] = Pre-emergence phytotoxicity against Zea mays (maize) assessed as mortality at 1.6 g a.i/10 a; type: organism-based; conditions: in vivo, 1.6 g a.i/10 a, read-out: mortality
[10] = test system: Glycine max; assay: (§1) Post-emergence phytotoxicity against Glycine max (soybean) assessed as mortality at 1.6 g a.i/10 a applied 11 days after germination as foliar spray; type: organism-based; conditions: in vivo, other, 264 h
[11] = test system: Persicaria nodosa; assay: Pre-emergence herbicidal activity against Persicaria nodosa assessed as growth inhibition at 25 g a.i/10 a; type: functional, organism-based
[12] = test system: Echinochloa crus-galli; assay: Pre-emergence herbicidal activity against Echinochloa crus-galli (barnyard grass) assessed as mortality at 6.3 g a.i/10 a; type: functional; conditions: Echinochloa crus-galli, pre-emergence
[13] = test system: Zea mays; assay: (§2) Post-emergence phytotoxicity against Zea mays (maize) assessed as mortality at 1.6 g a.i/10 a applied 11 days after germination as foliar spray; type: organism-based; conditions: in vivo, other, 264 h
[14] = test system: Xanthium strumarium; assay: Pre-emergence herbicidal activity against Xanthium strumarium (cocklebur) assessed as mortality at 6.3 g a.i/10 a; type: functional; conditions: Xanthium strumarium, pre-emergence
[15] = test system: Xanthium strumarium; assay: Pre-emergence herbicidal activity against Xanthium strumarium (cocklebur) assessed as mortality at 1.6 g a.i/10 a; type: functional; conditions: Xanthium strumarium, pre-emergence
[16] = test system: Gossypium hirsutum; assay: Pre-emergence phytotoxicity against Gossypium hirsutum (cotton) assessed as mortality at 6.3 g a.i/10 a; type: organism-based; conditions: in vivo, other
[17] = test system: Ipomoea lacunosa; assay: Pre-emergence herbicidal activity against Ipomoea lacunosa assessed as mortality at 1.6 g a.i/10 a; type: functional; conditions: Ipomoea lacunosa, pre-emergence
[18] = test system: Chenopodium album; assay: Pre-emergence herbicidal activity against Chenopodium album assessed as growth inhibition at 25 g a.i/10 a; type: functional, organism-based
[19] = test system: Echinochloa crus-galli; assay: Pre-emergence herbicidal activity against Echinochloa crus-galli (barnyard grass) assessed as mortality at 1.6 g a.i/10 a; type: functional; conditions: Echinochloa crus-galli, pre-emergence
[20] = test system: Gossypium hirsutum; assay: Post-emergence phytotoxicity against Gossypium hirsutum (cotton) assessed as mortality at 6.3 g a.i/10 a applied 11 days after germination as foliar spray; type: organism-based; conditions: in vivo, other, 264 h
[21] = test system: Glycine max; assay: Pre-emergence phytotoxicity against Glycine max (soybean) assessed as mortality at 1.6 g a.i/10 a; type: organism-based; conditions: in vivo, other
[22] = test system: Digitaria sanguinalis; assay: Post-emergence herbicidal activity against Digitaria sanguinalis (hairy crabgrass) assessed as growth inhibition at 25 g a.i/10 a applied 11 days after germination as foliar spray; type: functional, organism-based
[23] = test system: Amaranthus retroflexus; assay: Post-emergence herbicidal activity against Amaranthus retroflexus assessed as growth inhibition at 25 g a.i/10 a applied 11 days after germination as foliar spray; type: functional, organism-based
[24] = test system: Echinochloa crus-galli; assay: Pre-emergence herbicidal activity against Echinochloa crus-galli (barnyard grass) assessed as growth inhibition at 25 g a.i/10 a; type: functional, organism-based
[25] = test system: Xanthium strumarium; assay: Post-emergence herbicidal activity against Xanthium strumarium (cocklebur) assessed as mortality at 6.3 g a.i/10 a applied 11 days after germination as foliar spray; type: functional; conditions: 264 h
[26] = test system: Abutilon theophrasti; assay: Pre-emergence herbicidal activity against Abutilon theophrasti (velvetleaf) assessed as mortality at 1.6 g a.i/10 a; type: functional; conditions: Abutilon theophrasti, pre-emergence
[27] = test system: Zea mays; assay: Post-emergence phytotoxicity against Zea mays (maize) assessed as mortality at 6.3 g a.i/10 a applied 11 days after germination as foliar spray; type: organism-based; conditions: in vivo, other, 264 h
[28] = test system: Persicaria nodosa; assay: Post-emergence herbicidal activity against Persicaria nodosa assessed as growth inhibition at 25 g a.i/10 a applied 11 days after germination as foliar spray; type: functional, organism-based
[29] = test system: Cyperus iria; assay: Post-emergence herbicidal activity against Cyperus iria assessed as growth inhibition at 25 g a.i/10 a applied 11 days after germination as foliar spray; type: functional, organism-based
[30] = test system: Amaranthus retroflexus; assay: Pre-emergence herbicidal activity against Amaranthus retroflexus assessed as growth inhibition at 25 g a.i/10 a; type: functional, organism-based
[31] = test system: Glycine max; assay: Post-emergence phytotoxicity against Glycine max (soybean) assessed as mortality at 6.3 g a.i/10 a applied 11 days after germination as foliar spray; type: organism-based; conditions: in vivo, other, 264 h
[32] = test system: Glycine max; assay: (§3) Pre-emergence phytotoxicity against Glycine max (soybean) assessed as mortality at 6.3 g a.i/10 a; type: organism-based; conditions: in vivo, other
[33] = test system: Ipomoea lacunosa; assay: Pre-emergence herbicidal activity against Ipomoea lacunosa assessed as mortality per 10 acre; type: functional
[34] = test system: Gossypium hirsutum; assay: Pre-emergence phytotoxicity against Gossypium hirsutum (cotton) assessed as mortality at 1.6 g a.i/10 a; type: organism-based; conditions: in vivo, other
[35] = test system: Echinochloa crus-galli; assay: Post-emergence herbicidal activity against Echinochloa crus-galli (barnyard grass) assessed as mortality per 10 acre; type: functional
[36] = test system: Persicaria nodosa; assay: Pre-emergence herbicidal activity against Persicaria nodosa assessed as mortality per 10 acre; type: functional
[37] = test system: Gossypium hirsutum; assay: Post-emergence phytotoxicity against Gossypium hirsutum (cotton) assessed as mortality per 10 acre; type: organism-based; conditions: in vivo
[38] = test system: Amaranthus retroflexus; assay: Post-emergence herbicidal activity against Amaranthus retroflexus assessed as mortality per 10 acre; type: functional
[39] = test system: Echinochloa crus-galli; assay: Pre-emergence herbicidal activity against Echinochloa crus-galli (barnyard grass) assessed as mortality per 10 acre; type: functional
[40] = as §1; type: organism-based; conditions: in vivo, 1.6 g a.i/10 a
[41] = test system: Ipomoea lacunosa; assay: Post-emergence herbicidal activity against Ipomoea lacunosa assessed as mortality per 10 acre; type: functional
[42] = as §2; type: organism-based; conditions: in vivo, 1.6 g a.i/10 a
[43] = test system: Ipomoea lacunosa; assay: Post-emergence herbicidal activity against Ipomoea lacunosa assessed as mortality at 1.6 g a.i/10 a applied 11 days after germination as foliar spray; type: functional; conditions: 264 h
[44] = test system: Xanthium strumarium; assay: Post-emergence herbicidal activity against Xanthium strumarium (cocklebur) assessed as mortality per 10 acre; type: functional
[45] = test system: Ipomoea lacunosa; assay: Post-emergence herbicidal activity against Ipomoea lacunosa assessed as mortality at 6.3 g a.i/10 a applied 11 days after germination as foliar spray; type: functional; conditions: 264 h
[46] = test system: Abutilon theophrasti; assay: Post-emergence herbicidal activity against Abutilon theophrasti (velvetleaf) assessed as mortality at 6.3 g a.i/10 a applied 11 days after germination as foliar spray; type: functional; conditions: 264 h
[47] = test system: Echinochloa crus-galli; assay: Post-emergence herbicidal activity against Echinochloa crus-galli (barnyard grass) assessed as mortality at 6.3 g a.i/10 a applied 11 days after germination as foliar spray; type: functional; conditions: 264 h
[48] = test system: Gossypium hirsutum; assay: Pre-emergence phytotoxicity against Gossypium hirsutum (cotton) assessed as mortality per 10 acre; type: organism-based; conditions: in vivo
[49] = test system: Xanthium strumarium; assay: Pre-emergence herbicidal activity against Xanthium strumarium (cocklebur) assessed as mortality per 10 acre; type: functional
[50] = test system: Abutilon theophrasti; assay: Post-emergence herbicidal activity against Abutilon theophrasti (velvetleaf) assessed as mortality at 1.6 g a.i/10 a applied 11 days after germination as foliar spray; type: functional; conditions: 264 h
[51] = test system: Amaranthus retroflexus; assay: Pre-emergence herbicidal activity against Amaranthus retroflexus assessed as mortality per 10 acre; type: functional
[52] = test system: Persicaria nodosa; assay: Post-emergence herbicidal activity against Persicaria nodosa assessed as mortality per 10 acre; type: functional
[53] = as §3; type: organism-based; conditions: in vivo, 6.3 g a.i/10 a, read-out: mortality

SMILES: COC(=O)c1cccc(Oc2nc(OC)cc(OC)n2)c1C(=O)O
- mortality at 63 g/ha [1]: < 5%
- mortality at 16 g/ha [2]: < 5%
- Activity [3]: Toxic
- mortality at 63 g/ha [4]: < 5%
- growth inhibition (GI) [5]: Active
- growth inhibition (GI) [6]: Active
- growth inhibition (GI) [7]: Active
- growth inhibition (GI) [8]: Active
- mortality [9]: < 5%
- Activity [10]: Toxic
- growth inhibition (GI) [11]: Active
- mortality at 63 g/ha [12]: < 5%
- Activity [13]: Toxic
- mortality at 63 g/ha [14]: < 5%
- mortality at 16 g/ha [15]: < 5%
- Activity [16]: Non-toxic
- mortality at 16 g/ha [17]: < 5%
- growth inhibition (GI) [18]: Active
- mortality at 16 g/ha [19]: < 5%
- Activity [20]: Toxic
- Activity [21]: Non-toxic
- growth inhibition (GI) [22]: Active
- growth inhibition (GI) [23]: Active
- growth inhibition (GI) [24]: inactive
- mortality at 63 g/ha [25]: < 5%
- mortality at 16 g/ha [26]: < 5%
- Activity [27]: Toxic
- growth inhibition (GI) [28]: Active
- growth inhibition (GI) [29]: Active
- growth inhibition (GI) [30]: Active
- Activity [31]: Toxic
- Activity [32]: Non-toxic

SMILES: COc1cc(OC)nc(Oc2cccc(Br)c2C(=O)O)n1
- mortality at 63 g/ha [1]: > 90%
- ED90 [33]: 25 gAi
- Activity [34]: Non-toxic
- ED90 [35]: inactive
- ED90 [36]: 0.4 gAi
- Activity [3]: Toxic
- ED20 [37]: 0.2 gAi
- growth inhibition (GI) [5]: Active
- growth inhibition (GI) [6]: Active
- ED90 [38]: 0.2 gAi
- growth inhibition (GI) [7]: Active
- ED90 [39]: 1.5 gAi
- growth inhibition (GI) [8]: Active
- mortality [9]: > 90%
- mortality at 264 h [40]: > 90%
- ED90 [41]: 0.8 gAi
- growth inhibition (GI) [11]: Active
- mortality at 63 g/ha [12]: > 90%
- mortality at 264 h [42]: > 90%
- Activity [16]: Non-toxic
- mortality at 16 g/ha [17]: < 5%
- mortality at 16 g/ha [43]: > 90%
- growth inhibition (GI) [18]: Active
- Activity [20]: Toxic
- ED90 [44]: 1.5 gAi
- Activity [21]: Toxic
- growth inhibition (GI) [22]: Active
- mortality at 63 g/ha [45]: > 90%
- mortality at 63 g/ha [46]: > 90%
- mortality at 63 g/ha [47]: > 90%
- ED20 [48]: Toxic
- growth inhibition (GI) [23]: Active
- ED90 [49]: 25 gAi
- growth inhibition (GI) [24]: Active
- mortality at 16 g/ha [50]: > 90%
- mortality at 63 g/ha [25]: > 90%
- ED90 [51]: 0.4 gAi
- growth inhibition (GI) [28]: Active
- ED90 [52]: 0.2 gAi
- growth inhibition (GI) [29]: Active
- growth inhibition (GI) [30]: Active
- mortality [53]: > 90%
